Measured values: patent publication US20250305010A1, “LIPID COMPOSITIONS AND METHODS OF PRODUCING SAME” (Wilk Technologies International Ltd., priority 2022, published 2025)

Legend:
Assay type in all cases: cell-based, bovine
[1] = tested on: mammary epithelial cells (MECs); assay: Intracellular triglycerides (TGs) in MECs, plate assay
Procedure: 1. Oleic acid treatment: Oleic acid was added to the induction medium at […] final concentration. Treatment was carried for 1 up to 7 days. 2. […] LXRa was added into the media with or without Oleic acid. Two LXR agonists were tested: GW3965 (LXR1, SIGMA) and T0901317 (LXR2, SIGMA), each at a concentration of luM/ml for at least overnight (ON) incubation. The OA was added after cells reached the confluency of at least 80%. After treatment, cells were harvested with trypsin (0.05%), washed with 0.9% (w/v) NaCl and stored at −20° C. until lipid extraction. Total lipids were extracted from the intact cells by NP-40 and from media by cold-extraction procedure developed by Folch et al. with few adaptations. Briefly, a 5-ml aliquot of methanol: chloroform solution (2:1, v/v) was added to each sample. After incubation at room temperature, 1 ml of double-distilled water was added. After overnight incubation at 4° C., the upper phase was discarded, and the lower phase was filtered through a Pasteur pipette with glass wool. Samples were then dried under a nitrogen stream at 65° C., diluted in 100 μl 0.5% NP-40. Of note, lipid metabolites are measured by Cobas measurement, which is a parameter for lipid activity but measures also glycerol, the plate assay on the other hand measures TGs specifically while eliminating the glycerol background. After treatment, medium was collected and centrifuged at 500 g for 10 min. The supernatant was transferred to a fresh tube and kept at 4° C. until analysis. Medium triglyceride content was quantified with a Triglyceride Quantification Kit (lipase assay Abcam, Cambridge, UK). Quantification was performed against external standard curves and expressed as μg/10∧6 live cells. Live cell number was determined with a hemocytometer after Trypan blue staining.

[2] = tested on: mammary epithelial cells (MECs); assay: Lipids / lipid metabolites released to the culture medium of MECs; settings: 1 μM/ml LXRa with OA
Procedure: Total lipids were extracted from the intact cells by NP-40 and from media by cold-extraction procedure developed by Folch et al. with few adaptations. Briefly, a 5-ml aliquot of methanol: chloroform solution (2:1, v/v) was added to each sample. After incubation at room temperature, 1 ml of double-distilled water was added. After overnight incubation at 4° C., the upper phase was discarded, and the lower phase was filtered through a Pasteur pipette with glass wool. Samples were then dried under a nitrogen stream at 65° C., diluted in 100 μl 0.5% NP-40. Of note, lipid metabolites are measured by Cobas measurement, which is a parameter for lipid activity but measures also glycerol, the plate assay on the other hand measures TGs specifically while eliminating the glycerol background. After treatment, medium was collected and centrifuged at 500 g for 10 min. The supernatant was transferred to a fresh tube and kept at 4° C. until analysis. Medium triglyceride content was quantified with a Triglyceride Quantification Kit (lipase assay Abcam, Cambridge, UK). Quantification was performed against external standard curves and expressed as μg/10∧6 live cells. Live cell number was determined with a hemocytometer after Trypan blue staining.

[3] = tested on: mammary epithelial cells (MECs); assay: Cell viability and morphology of MECs under oleic acid with or without LXRa
Procedure: 1. Oleic acid treatment: Oleic acid was added to the induction medium at […] final concentration. Treatment was carried for 1 up to 7 days.
2. […] LXRa was added into the media with or without Oleic acid. Two LXR agonists were tested: GW3965 (LXR1, SIGMA) and T0901317 (LXR2, SIGMA), each at a concentration of luM/ml for at least overnight (ON) incubation. The OA was added after cells reached the confluency of at least 80%.
The analysis was done for the presence of 360 μM OA or 1100 μM OA with or without LXRa (TO901317).

[4] = tested on: LXR downstream genes: SREBP1, FASN, SLC25A1 and SQLE; assay: RT-PCR expression of LXR downstream lipid metabolism genes in MECs after overnight LXR agonist incubation; settings: OA incubation of MECs
Procedure: A primary culture of MEC was isolated from mammary biopsies. Briefly, udder tissue was collected from lactating cows in a commercial slaughterhouse and immediately submerged in ice-cold growth medium, DMEM-F12, with 1000 U/ml penicillin, 1 mg/ml streptomycin, 2.5 μg/ml amphotericin B mixture, and 0.02 mg/ml heparin supplementation to prevent cell clotting after digestion. Study protocols followed the regulations of the Israeli Ministry of Health. Cells were grown in plastic culture dishes with DMEM/F12 supplemented with 10% (w/v) FBS, 100 U/ml penicillin, 100 μg/ml streptomycin, 0.25 μg/ml amphotericin B supplemented with insulin (1 μg/ml), hydrocortisone (0.5 μg/ml) and prolactin (1 μg/ml). 2. […] LXRa was added into the media with or without Oleic acid. Two LXR agonists were tested: GW3965 (LXR1, SIGMA) and T0901317 (LXR2, SIGMA), each at a concentration of luM/ml for at least overnight (ON) incubation. The OA was added after cells reached the confluency of at least 80%. Cells were harvested using the […] reagent and pellet was collected by centrifugation of 3 min in 300 rcf. RNA was extracted from 1×10^6 cells using NzytechTM total RNA isolation kit (MB13402). cDNA was prepared using SensiFastTM cDNA kit (0.5μgr RNA/20 μl reaction mix). RT-PCR was done with the following primers by using SensiFastTM RT-PCR kit with 1.25-20 ng cDNA/well. [table] […]

With `O=S(=O)(c1ccccc1)N(CC(F)(F)F)c1ccc(C(O)(C(F)(F)F)C(F)(F)F)cc1` [LXRa, T0901317] the “Higher intracellular TGs levels vs OA only” value ([1]; 360 μM OA treatment, LXRa 1 μl/ml) was 60%, the “Delta triglycerides (TGs) levels inside cells with vs without LXRa” value ([1]; FIG. 3) was “similar” and the “Effect of LXR agonist on intracellular TGs” value ([1]; OA concentrations higher than 360 μM) was “not observed”. The “Lipids release to the medium” value [2] was “release lipids to the medium” and the “Effect of LXRa on oleic acid toxicity (cells viability and morphology)” value ([3]; LXRa 1 μM/ml TO901317, 360 μM or 1100 μM OA) was “ameliorates the negative effect”.

For `CCCCCCCC/C=C\CCCCCCCC(=O)O` [Oleic acid, oleic acid], the “Effect on LXR dependent gene expression of lipid metabolism” value [4] was “no effect” and the “Effect on cells viability” value ([3]; oleic acid above 300 μM or longer than one day) was “negative effect”.
